Measurements reported in patent publication US4165379A, “N-acetyl thienamycin” (Merck & Co., Inc., priority 1977, dated 1979).
Read-outs that look alike come from different tables or passages of the source.

Legend:
Staph aureus 2949 = test: Efficacy studies (mice), intraperitoneal infection (Table 4); assay type: in vivo, CD-1 female mice infected with Staph aureus; settings: Staphylococcus aureus, 2949, ip, 168 h; i.p. × 2, at time of infection and again 6 hours later; challenge 13 LD50; survival seventh day after infection
Protocol: (§1) In determining the in vivo activity, N-acetyl thienamycin is dissolved in and diluted with 0.01 M sodium phosphate, pH 7.0, to provide five fourfold concentrations of drug for testing. Female white Swiss mice, averaging about 21 g. in weight, were infected intraperitoneally with the test organism suspended in broth. The numbers of organisms injected were determined by standard plate-count techniques. At the time of infection, and again 6 hours later, certain of the mice were treated intraperitoneally with the antibiotic. Five mice were used for each concentration of drug tested. Controls of five mice for each of several dilutions of the infecting culture were included in each test in order to calculate the numbers of organisms that were lethal to 50% of the infected, untreated mice (LD50). This calculation was made using survival data of the seventh day after infection, at which time the amount of drug that should protect 50% of the infected mice (ED50) also was calculated.

[1] = tested on: gram-negative and gram-positive organisms; test: In vivo activity against infections in mice; settings: mouse
Protocol: as §1

[2] = pKa from the λ max dependence on pH; assay type: physicochemical; settings: read-out: pKa for a COOH group
Bacillus subtilis = test: Bauer-Kirby disc diffusion antibiotic spectrum (Table 3); assay type: cell-based; settings: MB 964, ATCC 6633, read-out: diameter of the zone of inhibition
From the text: (§2) The test employs the Bauer-Kirby disc diffusion method modified only in respect to the 2 mm. agar depth employed here.

Proteus morganii = test: as above; assay type: cell-based; settings: MB2833, resistance P,C (penicillins, cephalosporins), read-out: diameter of the zone of inhibition
From the text: as §2

Proteus mirabilis = test: as above; assay type: cell-based; settings: MB2830, resistance P,C (penicillins, cephalosporins), read-out: diameter of the zone of inhibition
From the text: as §2

Pseudomonas aeruginosa = test: as above; assay type: cell-based; settings: read-out: diameter of the zone of inhibition; for zone of inhibition at 9.85 µg/disc: 9.85 μg/disc, prepared by fermenting Streptomyces cattleya; for zone of inhibition at 10.35 µg/disc: Pseudomonas aeruginosa, 10.35 μg/disc, prepared by acetylating thienamycin
From the text: as §2

Serratia = test: as above; assay type: cell-based; settings: MB2840, resistance P,C (penicillins, cephalosporins), read-out: diameter of the zone of inhibition
From the text: as §2

Escherichia coli = test: as above; assay type: cell-based; settings: read-out: diameter of the zone of inhibition; for zone of inhibition at 10.35 µg/disc: Escherichia coli, 10.35 μg/disc, prepared by acetylating thienamycin; for zone of inhibition at 9.85 µg/disc: 9.85 μg/disc, prepared by fermenting Streptomyces cattleya
From the text: as §2

Enterobacter cloacae = test: as above; assay type: cell-based; settings: read-out: diameter of the zone of inhibition; for zone of inhibition at 10.35 µg/disc: Enterobacter cloacae, 10.35 μg/disc, prepared by acetylating thienamycin; for zone of inhibition at 9.85 µg/disc: 9.85 μg/disc, prepared by fermenting Streptomyces cattleya
From the text: as §2

Staphylococcus aureus = test: as above; assay type: cell-based; settings: for diameter of the zone of inhibition: MB2314, resistance P (penicillins)
From the text: as §2

Klebsiella pneumoniae = test: as above; assay type: cell-based; settings: read-out: diameter of the zone of inhibition; for zone of inhibition at 10.35 µg/disc: Klebsiella pneumoniae, 10.35 μg/disc, prepared by acetylating thienamycin; for zone of inhibition at 9.85 µg/disc: 9.85 μg/disc, prepared by fermenting Streptomyces cattleya
From the text: as §2

[3] = tested on: Vibrio percolans ATCC 8461; test: Disc-diffusion bioassay on ATCC 8461 plates; assay type: cell-based; settings: crude sample (244 absorbance units at 298 nm); 1/2 inch disc, 0.1 ml of 1000 fold dilution; 25° C.
Protocol: Assays of antibacterial activity are run according to the following disc-diffusion method using either Vibrio percolans ATCC 8461 or Staphylococcus aureus ATCC […] as tester organism. Plates containing Vibrio percolans ATCC 8461 are prepared as follows: A lyophilized culture of Vibrio percolans ATCC 8461 is suspended in 15 ml. of a sterilized medium containing 8 g./l. of Difco Nutrient Broth and 2 g./l. of yeast extract in distilled water (hereinafter designated NBYE). The culture is incubated overnight on a rotary shaker at 28° C. This culture is used to inoculate the surface of […] containing 1.5% agar in NBYE, and the inoculated […] incubated overnight at 28° C. and then stored in a refrigerator. The refrigerated […] prepared from a single lyophilized culture are used for up to four weeks from their preparation, as follows: A loop of inoculum from the slant is dispersed in 50 ml. of NBYE contained in a 250 ml. Erlenmeyer flask. […] The plates are incubated at 37° C. overnight, and the zone of inhibition is measured as mm. diameter. The zone of inhibition measured in mm. determines relative potencies. […] The solution contains 244 absorbance units at 298 nm and a 1/2 inch assay disc containing 0.1 ml. of a 1000 fold dilution, produces a 23 mm. zone of inhibition when incubated on ATCC 8461 plates at 25° C.

[4] = tested on: Staphylococcus aureus ATCC 6538P; test: Disc-diffusion potency in units/mg relative to cephalothin; assay type: cell-based
Protocol: Plates containing Staphylococcus aureus ATCC 6538P are prepared as follows:
An overnight growth of the assay organism, Staphylococcus aureus ATCC 6538P, in nutrient broth plus 0.2% yeast extract is diluted with nutrient broth plus 0.2% yeast extract to a suspension having 55% transmittance at a wavelength of 660 nm. This suspension is added to Difco nutrient agar supplemented with 2.0 g./l. Difco yeast extract at 47° C. to 48° C., to make a composition containing 33.2 ml. of the suspension per liter of agar. Five ml. of this suspension is poured into petri dishes of 85 mm. diameter, and these plates are chilled and held at 4° C. until used (5 day maximum).
Samples of antibiotic to be assayed are diluted to an appropriate concentration in phosphate buffer at pH 7. Filter paper discs, 1/4 or 1/2 inch diameter, are dipped into the test solution and placed on the surface of the assay plate. The plates are incubated at 37° C. overnight, and the zone of inhibition is measured as mm. diameter. The zone of inhibition measured in mm. determines relative potencies.
The 48 l. concentrate is adjusted to pH 7.3 and adsorbed on 76 l. of Dowex 1×2, 50 to 100 mesh, chloride cycle resin at 7.6 l./min. The resin is eluted with deionized water at the same rate. Four fractions are collected, two of 48 l., one of 70 l. and one of 48 l. The fractions are adjusted to pH 7 as collected. Assays indicate that 68% of the starting bioactivity is in the 70 l. fraction. This fraction is concentrated to 18 l. at pH 7.0 and filtered using a 0.45 micron Millipore Filter.

[5] = 9.85 μg/disc, prepared by fermenting Streptomyces cattleya
[6] = MB2824, resistance P,C (penicillins, cephalosporins)
[7] = MB2835, resistance P,C (penicillins, cephalosporins), zone hazy
[8] = MB3286, resistance P,C (penicillins, cephalosporins)
[9] = MB2482, resistance P (penicillins)
[10] = MB2964, resistance P,C (penicillins, cephalosporins)
[11] = MB2646, resistance P,C (penicillins, cephalosporins)
[12] = MB2921, resistance P (penicillins)
[13] = MB2922, resistance P (penicillins)

Compound: CC(=O)NCCSC1=C(C(=O)O)N2C(=O)C(C(C)O)C2C1 (centres unmarked) [N-Acetyl Thienamycin, N-acetyl thienamycin]
- ED50 (Staph aureus 2949): 0.05 mg/kg
- in vivo activity [1]: exhibits in vivo activity against gram-negative and gram-positive organisms
- pKa [2]: 3.3 ± 0.1
- zone of inhibition at 10.35 µg/disc (Bacillus subtilis; Bacillus subtilis, ATCC6633, 10.35 μg/disc, prepared by acetylating thienamycin): 44.5 mm
- zone of inhibition at 9.85 µg/disc (Bacillus subtilis; [5]): 43 mm
- zone of inhibition at 9.85 µg/disc (Proteus morganii; [5]): 25.5 mm
- zone of inhibition at 10.35 µg/disc (Proteus morganii; Morganella morganii, 10.35 μg/disc, prepared by acetylating thienamycin): 25 mm
- zone of inhibition at 9.85 µg/disc (Proteus mirabilis; [5]): 25 mm
- zone of inhibition at 10.35 µg/disc (Proteus mirabilis; Proteus mirabilis, 10.35 μg/disc, prepared by acetylating thienamycin): 26 mm
- zone of inhibition at 9.85 µg/disc (Pseudomonas aeruginosa; [6]): 23 mm
- zone of inhibition at 9.85 µg/disc (Pseudomonas aeruginosa; [7]): 11 mm
- zone of inhibition at 9.85 µg/disc (Pseudomonas aeruginosa; [8]): 0 mm
- zone of inhibition at 10.35 µg/disc (Pseudomonas aeruginosa; [6]): 24 mm
- zone of inhibition at 10.35 µg/disc (Pseudomonas aeruginosa; [7]): 11 mm
- zone of inhibition at 10.35 µg/disc (Pseudomonas aeruginosa; [8]): 0 mm
- zone of inhibition at 9.85 µg/disc (Serratia; [5]): 27 mm
- zone of inhibition at 10.35 µg/disc (Serratia; Serratia, 10.35 μg/disc, prepared by acetylating thienamycin): 27 mm
- zone of inhibition at 10.35 µg/disc (Escherichia coli; [9]): 28 mm
- zone of inhibition at 10.35 µg/disc (Escherichia coli; MB2884): 31.5 mm
- zone of inhibition at 10.35 µg/disc (Escherichia coli; [10]): 29.5 mm
- zone of inhibition at 9.85 µg/disc (Escherichia coli; [9]): 28 mm
- zone of inhibition at 9.85 µg/disc (Escherichia coli; MB2884): 31.5 mm
- zone of inhibition at 9.85 µg/disc (Escherichia coli; [10]): 28.5 mm
- zone of inhibition at 10.35 µg/disc (Enterobacter cloacae; [11]): 27 mm
- zone of inhibition at 10.35 µg/disc (Enterobacter cloacae; MB2647): 29 mm
- zone of inhibition at 9.85 µg/disc (Enterobacter cloacae; [11]): 26.5 mm
- zone of inhibition at 9.85 µg/disc (Enterobacter cloacae; MB2647): 29 mm
- diameter of the zone of inhibition (Staphylococcus aureus; [5]): 37 millimeters
- diameter of the zone of inhibition (Staphylococcus aureus; 10.35 μg/disc, prepared by acetylating thienamycin): 37 millimeters
- zone of inhibition at 9.85 µg/disc (Staphylococcus aureus; MB2985, 9.85 μg/disc, prepared by fermenting Streptomyces cattleya, read-out: diameter of the zone of inhibition): 37 mm
- zone of inhibition at 10.35 µg/disc (Staphylococcus aureus; Staphylococcus aureus, MB2985, 10.35 μg/disc, prepared by acetylating thienamycin, read-out: diameter of the zone of inhibition): 37 mm
- zone of inhibition at 10.35 µg/disc (Klebsiella pneumoniae; [12]): 28.5 mm
- zone of inhibition at 10.35 µg/disc (Klebsiella pneumoniae; [13]): 30 mm
- zone of inhibition at 9.85 µg/disc (Klebsiella pneumoniae; [12]): 28 mm
- zone of inhibition at 9.85 µg/disc (Klebsiella pneumoniae; [13]): 27 mm
- zone of inhibition [3]: 23 mm

Compound: C[C@@H](O)[C@H]1C(=O)N2C(C(=O)O)=C(SCCN)C[C@H]12 [thienamycin]
- calculated potency ([4]; 23.6 mg. after second XAD-2 column): 30,140 units/mg
- average potency ([4]; 90 mg. after Bio-Gel P-2, fractions 75 through 80): 10,000 units/mg
- potency ([4]; 100.5 mg. after Bio-Gel P-2, fractions 75 through 79): 8,320 units/mg
- calculated potency ([4]; after second XAD-2 column, 3.1 fold purification): 31,000 units/mg
- potency ([4]; freeze-dried product after Dowex 1×2): 310 units/mg
